# Experimental data taken from patent US20260210856A1, “CONJUGATED OLIGOELECTROLYTES WITH BORON-DIPYRROMETHENE CORES AND METHODS THEREOF” (National University of Singapore, priority 2022, published 2026).
# Columns and labels:
# [1] = Analyte viscosity sensing: fluorescence lifetime in the presence of different analytes; format: physicochemical; conditions: 0.5 μM
# Procedure: Solutions of bovine serum albumin (BSA), high density lipoprotein (HDL), Liposomes of POPC:POPG 85:15 (SUVs) and Liposomes of POPC:POPG:Cholesterol 42.5:7.5:50 (SUV CHOL) were prepared at final concentrations of 1 mg/mL in PBS. COE-BYs were prepared at 1 μM in PBS. 150 μL of analyte and 150 μL of COE-BYs were mixed and incubated for 1 hour at 37C. Fluorescent emission profiles were measured with excitation at 545 nm.
# [2] = Photophysical properties in PBS and in SUVs (POPC:POPG 85:15); format: physicochemical
# Source text: The photophysical properties of the COE-BY series were studied in phosphate-buffered saline (PBS) and within model lipid bilayers. Small unilamellar vesicles (SUVs) composed of 1-palmitoyl-2-oleoyl-glycero-3-phosphocholine (POPC) and 1-palmitoyl-2-oleoyl-sn-glycero-3-phospho-(1′-rac-glycerol) sodium (POPG) (85:15, mol/mol) were used to simulate the lipid environment in cell membranes. The absorption spectra in PBS for all compounds feature a main peak at ~550 nm, reflecting the presence of the BODIPY subunit (FIG. 9A). One also observes a 5-10 nm red-shift of lowest energy absorption peak with increasing electron-withdrawing strength of the phenyl substituents.
# Upon inserting into lipid bilayers, the fluorescence intensity increases over 27-fold for COE-BYPhMe, 30-fold for COE-BYPhOC4, 35-fold for COE-BYPhCN and 40-fold for COE-BYPhNO, relative to the values measured in PBS (FIG. 1c and FIG. S5). The increase in emission intensity reflects a transition to a more rigid and hydrophobic environment. Quantum yields increase to 32% for COE-BYPhMe, 60% for COE-BYPhOC4, 13% for COE-BYPhCN, and 10% for COE-BYPhNO in SUVs from 1% for COE-BYPhMe, 3% for COE-BYPhOC4, and 0.5% for COE-BYPhCN in PBS. The QY of COE-BYPhNO in PBS cannot be accurately determined by using a conventional fluorometer due to its weak fluorescence. The maximum emission wavelengths are redshifted from 587/589 nm (COE-BYPhMe/OC4) to 605/611 nm (COE-BYPhCN/NO) as a result of the decreased HOMO-LUMO energy gaps. […] Furthermore, the fluorescence spectra of COE-BYs intercalated within SUVs show a narrow band at wavelengths between 587 nm and 611 nm, with a full width half maximum (FWHM) linewidth of 52-68 nm (Table 1).
# [3] = FLIM of stained GUVs with varying compositions; format: physicochemical; conditions: 1 μM
# Source text: FLIM is a time-resolved method used to obtain information on the emission decay of a fluorophore in different cellular environments. Being independent of parameters such as local dye concentration, absorption profile, and excitation intensity, FLIM is sensitive to changes in the fluorophore itself relative to intensity-based measurements. Accordingly, we first used GUV model systems with a well-defined composition to measure the lifetime of the probe in environments of known lipid packing. For this purpose, use used compositions of, in order of increased membrane tension, DOPC, DOPC with cholesterol (Chol), sphyngomyelin (SM) and SM with Chol. This series of GUVs allows us to examine to what extent τw of intercalated COE-BYPhOC4 is responsive to different levels of membrane tension.
# GUVs were thus first stained with 1 μM COE-BYPhOC4 and were imaged via conventional FLIM. […] All the lifetimes measured are predominantly described by a mono-exponential fit. […]
# A549 cells = experiment: Confocal microscopy of stained cells; format: cell-based
# Procedure: A549 cells were stained for 5 minutes with 0.75 μM COE-BYPhMe (red channel) before imaging and Hoechst 33342 (blue channel).
# (§1) Our next objective was to study the cellular distribution of COE-BYPhOC4 series at different time points by conventional confocal microscopy.
# MDCK cells = experiment: Confocal microscopy of stained cells; format: cell-based; conditions: 1 μM, 10 minutes
# Source text: as §1
# [4] = Fluorescence imaging of stained GUVs; format: physicochemical; conditions: POPC GUV, normal light
# Source text: Giant unilamellar vesicles (GUVs) composed of 1-palmitoyl-2-oleoyl-glycero-3-phosphocholine (POPC) were chosen as the model membrane system for the initial studies because of their ideal size (diameter>1 μm) for imaging via optical microscopy. […] COE-BY series are thus embedded within the bilayer as membrane-spanning probes, a geometric consideration relevant to measuring membrane tension across the whole lipid bilayer, instead of a single leaflet.
compound,measurement,setting,value
CCCCOc1ccc(C2=C3C(C)=C(c4ccc(/C=C/c5cc(OCCCCCC[N+](C)(C)C)c(OCCCCCC[N+](C)(C)C)c(OCCCCCC[N+](C)(C)C)c5)cc4)C(C)=[N+]3[B-](F)(F)n3c(C)c(-c4ccc(/C=C/c5cc(OCCCCCC[N+](C)(C)C)c(OCCCCCC[N+](C)(C)C)c(OCCCCCC[N+](C)(C)C)c5)cc4)c(C)c32)cc1.[I-].[I-].[I-].[I-].[I-].[I-] [COE-BYPhOC4],Lifetime,[1]; analyte HDL 0.5 mg/mL,4.02 ± 0.01 ns
same,Lifetime,[1]; analyte PBS,0.56 ± 0.01 ns
same,Lifetime,[1]; analyte SUV (POPC:POPG 85:15) 0.5 mg/mL,1.99 ± 0.01 ns
same,Lifetime,[1]; analyte SUV CHOL (POPC:POPG:Cholesterol 42.5:7.5:50) 0.5 mg/mL,2.18 ± 0.01 ns
same,FWHM,"[2]; fluorescence spectra, intercalated within SUVs",56 nm
same,ΦF in PBS,[2]; in PBS,3%
same,λabs,[2]; in PBS,540 nm
same,λem in PBS,[2]; in PBS,602 nm
same,ΦF in SUVs,[2]; in SUVs,60%
same,λem in SUVs,[2]; in SUVs,589 nm
same,fluorescence intensity increase upon inserting into lipid bilayers,[2]; relative to the values measured in PBS,> 30 fold
same,τw,[3]; DOPC GUVs,1.6±0.2 ns
same,τw,[3]; SM/Chol vesicles,2.8±0.3 ns
same,staining pattern,"A549 cells; A549, 1 μM, 10 minutes",strong fluorescence signals were observed on the plasma membranes
same,location of emission,A549 cells; incubation for 4 hours,predominantly intracellular emission
same,staining pattern,MDCK cells,strong fluorescence signals were observed on the plasma membranes
same,fluorescence of stained GUV,[4],strong uniform fluorescence
